Like-named read-outs stand apart in the source and are kept apart here.
System: SARS-CoV-2 (Omicron variant)
Assay: microbe, parasite or virus in culture
Format: cell-based
[1] = Severe acute respiratory syndrome coronavirus 2, read-out: EC50 (μM) SARS-CoV-2 / VeroE6-GFP
[2] = Severe acute respiratory syndrome coronavirus 2, read-out: EC50 (μM) SARS-CoV-2/VeroE6-GFP
[3] = Severe acute respiratory syndrome coronavirus 2, Vero C1008, read-out: EC50 / activity in SARS-CoV-2 VeroE6 antiviral assay

| SMILES | EC50 [1] [µM] | EC50 [2] [µM] | EC50 [3] [µM] |
| --- | --- | --- | --- |
| COc1ccc(-c2ccc(C(=O)N[C@@H](CC(C)C)C(=O)N[C@H](C#N)C[C@@H]3CCNC3=O)c(Cl)c2)cc1 [18r] | 1.57 |  |  |
| CC(C)C[C@H](NC(=O)c1ccc(-c2ccc3cnn(C)c3c2)cc1Cl)C(=O)N[C@H](C#N)C[C@@H]1CCNC1=O [18q] | 3.02 |  |  |
| COc1ccc(-c2ccc(C(=O)N[C@@H](CC(C)C)C(=O)N[C@H](C#N)C[C@@H]3CCNC3=O)c(C(F)(F)F)c2)cc1 [18m] | 2.56 |  |  |
| COc1cccc(-c2ccc(C(=O)N[C@@H](CC3CCCCC3)C(=O)N[C@H](C#N)C[C@@H]3CCNC3=O)c(Cl)c2)c1 [23d] |  | 8.64 ± 0.3 |  |
| CC(C)C[C@H](NC(=O)c1ccc(-c2cccc3nn(C)cc23)cc1)C(=O)N[C@H](C#N)C[C@@H]1CCNC1=O [6j] |  | 12.1 ± 0.5 |  |
| COc1cccc(-c2ccc(C(=O)N[C@@H](CC(C)C)C(=O)N[C@H](C#N)C[C@@H]3CCNC3=O)cc2)c1 [6e] |  | 12.5 ± 0.5 |  |
| COc1ccc(-c2ccc(C(=O)N[C@@H](CC(C)C)C(=O)N[C@H](C#N)C[C@@H]3CCNC3=O)cc2)cc1OC [6f] |  | 11.9 ± 0.1 |  |
| COc1cccc(-c2ccc(C(=O)N3C[C@H]4[C@@H]([C@H]3C(=O)N[C@H](C#N)C[C@@H]3CCNC3=O)C4(C)C)c(Cl)c2)c1 [22f] |  | 0.331 ± 0.05 | 0.2 to 0.3 |
| COc1ccc(-c2ccc(C(=O)N[C@@H](CC3CCCCC3)C(=O)N[C@H](C#N)C[C@@H]3CCNC3=O)c(Cl)c2)cc1 [23c] |  | 2.49 ± 0.2 |  |
| CC(C)C[C@H](NC(=O)c1ccc(-c2ccc3c(cnn3C)c2)cc1)C(=O)N[C@H](C#N)C[C@@H]1CCNC1=O [6l] |  | 11.1 ± 0.3 |  |
| COc1cccc(-c2ccc(C(=O)N[C@@H](CC(C)C)C(=O)N[C@H](C#N)C[C@@H]3CCNC3=O)c(Cl)c2)c1 [18n] | 2.18 | 2.18 ± 0.2 |  |
| CC(C)(C)[C@H](NC(=O)C(F)(F)F)C(=O)N1C[C@H]2[C@@H]([C@H]1C(=O)N[C@H](C#N)C[C@@H]1CCNC1=O)C2(C)C [nirmatrelvir, reference compound] |  | 0.101 ± 0.2 | 0.1 to 0.18 |
| CC(C)C[C@H](NC(=O)c1ccc(-c2ccc3c(cnn3C)c2)cc1Cl)C(=O)N[C@H](C#N)C[C@@H]1CCNC1=O [18o] | 4.25 |  |  |
| COc1ccc(-c2ccc(C(=O)N[C@@H](CC(C)C)C(=O)N[C@H](C#N)C[C@@H]3CCNC3=O)c(F)c2)cc1 [18b] | 5.67 |  |  |
| COc1ccc(-c2ccc(C(=O)N[C@@H](CC(C)C)C(=O)N[C@H](C#N)C[C@@H]3CCNC3=O)c(C)c2)cc1 [18k] | 5.16 |  |  |
| CC(C)C[C@H](NC(=O)c1ccc(-c2cccc3nn(C)cc23)cc1Cl)C(=O)N[C@H](C#N)C[C@@H]1CCNC1=O [18p] | 11.8 |  |  |
| CC(C)C[C@H](NC(=O)c1ccc(-c2ccc3c(cnn3C)c2)cc1F)C(=O)N[C@H](C#N)C[C@@H]1CCNC1=O [18c] | 6.34 |  |  |
| CC(C)C[C@H](NC(=O)c1ccc(-c2cccc3nn(C)cc23)cc1F)C(=O)N[C@H](C#N)C[C@@H]1CCNC1=O [18a] | 4.18 |  |  |
| COc1ccc(-c2ccc(C(=O)N3C[C@H]4[C@@H]([C@H]3C(=O)N[C@H](C#N)C[C@@H]3CCNC3=O)C4(C)C)c(Cl)c2)cc1 [22e] |  | 0.289 ± 0.05 | 0.2 to 0.3 |
